According to patent US20080031887A1, “Conjugates for inducing targeted immune responses and methods of making and using same” (priority 2006, published 2008):

Assays:
Type in all cases: in vivo
[1] = tested on: TUBO cells; assay: TUBO tumors implanted s.c. in Balb/c (non-tolerant) mice, treatment from day 10; conditions: 20 μg/injection three times a week for three weeks; for antitumor effect (tumor rejection / tumor growth): i.t. injection, FIG. 1A; for antitumor effect: s.c. injection in the opposite flank, data not shown
Experimental: (§1) FIG. 1 contains graphic representations illustrating that intratumoral injections of CpG-ODN induce rejection of tumors in Balb/c, BALB-neuT and A2×neu mice. Balb/c and BALB-neuT were implanted s.c. with 10^6 TUBO cells, and A2×neu mice were implanted s.c. with 10^6 N202.A2 cells on day zero. On day 10, animals started treatment with i.t. injections of TLR-ligands three times a week (20 μg/injection) for three weeks. […]
(§2) For these experiments, Balb/c (non-tolerant) and BALB-neuT (tolerant) mice implanted with TUBO cells and A2×neu mice implanted with N202.A2 cells were used (it is important to remember that TUBO cells are tumorigenic in Balb/c and BALB-neuT mice, while N202.A2 cells are tumorigenic only in A2×neu mice but not in A2×FVB mice). It is well established that the injection of these ligands results in the activation of DCs, monocytes/macrophages, and B cells, and as a consequence of the activation of these cells, NK cell and T cell responses are stimulated. […] Balb/c and BALB-neuT mice were implanted s.c. with 10^6 TUBO cells, and A2×neu mice were implanted s.c. with 10^6 N202.A2 cells on day zero. On day 10, animals started treatment with s.c. injections of anti-CD40 mAb, Poly I:C, LPS, flagellin, imiquimod, CpG-ODN and control-ODN (as a control) in the opposite flank from where the tumor was injected, three times a week (20 μg/injection) for three weeks. […] It was decided to test whether intratumoral (i.t.) injection of TLR ligands would result in the induction of an antitumor response. The effect of i.t. injections of anti-CD40 mAb, Poly I:C, LPS, flagellin, imiquimod, CpG-ODN and control-ODN (as a control) three times a week (20 μg/injection) for three weeks was tested. […]
Evaluation of anti-neu-CpG-ODN (cleavable bond) vs. anti-neu-CpG-ODN (non-cleavable bond). In determining the effectiveness of the conjugates of the present invention, the antitumor effects of anti-neu-CpG-ODN generated with a cleavable bond or non-cleavable bond were evaluated. Anti-neu-CpG-ODN generated with a non-cleavable bond was produced by the reaction pathway shown in FIG. 7A and contained a hydrazone linkage between the Anti-neu antibody and the CpG-ODN. Anti-neu-CpG-ODN generated with a cleavable bond was produced by the reaction pathway shown in FIG. 7B and contained a disulfide cleavable linkage. TUBO cells (1×10^6) were implanted s.c. on day zero on Balb/c. Starting on day 10, animals were injected intratumorally with 30 μg/injection of each of the anti-neu-CpG-ODN molecules three times a week for three weeks.

[2] = tested on: TUBO cells; assay: TUBO tumors implanted s.c. in BALB-neuT (tolerant) mice, treatment from day 10; conditions: 20 μg/injection three times a week for three weeks; for antitumor effect: s.c. injection in the opposite flank, data not shown; for antitumor effect (tumor rejection / tumor growth): i.t. injection, FIG. 1B
Experimental: as §1, §2

[3] = tested on: N202.A2 cells; assay: N202.A2 tumors implanted s.c. in A2×neu mice, treatment with TLR ligands from day 10; conditions: 20 μg/injection three times a week for three weeks; for antitumor effect: s.c. injection in the opposite flank, data not shown; for antitumor effect (tumor rejection / tumor growth): i.t. injection, FIG. 1C
Experimental: FIG. 1 contains graphic representations illustrating that intratumoral injections of CpG-ODN induce rejection of tumors in Balb/c, BALB-neuT and A2×neu mice. Balb/c and BALB-neuT were implanted s.c. with 10^6 TUBO cells, and A2×neu mice were implanted s.c. with 10^6 N202.A2 cells on day zero. On day 10, animals started treatment with i.t. injections of TLR-ligands three times a week (20 μg/injection) for three weeks.
For these experiments, Balb/c (non-tolerant) and BALB-neuT (tolerant) mice implanted with TUBO cells and A2×neu mice implanted with N202.A2 cells were used (it is important to remember that TUBO cells are tumorigenic in Balb/c and BALB-neuT mice, while N202.A2 cells are tumorigenic only in A2×neu mice but not in A2×FVB mice). It is well established that the injection of these ligands results in the activation of DCs, monocytes/macrophages, and B cells, and as a consequence of the activation of these cells, NK cell and T cell responses are stimulated. […] Balb/c and BALB-neuT mice were implanted s.c. with 10^6 TUBO cells, and A2×neu mice were implanted s.c. with 10^6 N202.A2 cells on day zero. On day 10, animals started treatment with s.c. injections of anti-CD40 mAb, Poly I:C, LPS, flagellin, imiquimod, CpG-ODN and control-ODN (as a control) in the opposite flank from where the tumor was injected, three times a week (20 μg/injection) for three weeks. […] It was decided to test whether intratumoral (i.t.) injection of TLR ligands would result in the induction of an antitumor response. The effect of i.t. injections of anti-CD40 mAb, Poly I:C, LPS, flagellin, imiquimod, CpG-ODN and control-ODN (as a control) three times a week (20 μg/injection) for three weeks was tested.

Compound	antitumor effect (tumor rejection / tumor growth) [1]	antitumor effect [1]	antitumor effect [2]	antitumor effect [3]	antitumor effect (tumor rejection / tumor growth) [2]	antitumor effect (tumor rejection / tumor growth) [3]
Poly I:C	induced the rejection of tumors	no antitumor effect	no antitumor effect	no antitumor effect		
CC(C)Cn1cnc2c(N)nc3ccccc3c21 [imiquimod]	did not have any effect in controlling the tumor growth	no antitumor effect	no antitumor effect	no antitumor effect	did not have any effect in controlling the tumor growth	did not have any effect in controlling the tumor growth
flagellin	did not have any effect in controlling the tumor growth	no antitumor effect	no antitumor effect	no antitumor effect	did not have any effect in controlling the tumor growth	did not have any effect in controlling the tumor growth
